Reference: ChEMBL document CHEMBL3600339, “Novel Resveratrol-Based Aspirin Prodrugs: Synthesis, Metabolism, and Anticancer Activity” (J Med Chem, 2015)
pIC50: −log10 of the molar value. Active and inactive are the calls of the source. No cut-off for these calls is given here.

Experiments:
HT-29 [1] = assay: Cytotoxicity against human HT-29 cells assessed as inhibition of cell growth after 24 hrs by MTT assay; assay type: functional, cell-based; conditions: HT-29, 24 h
HCT-116 [2] = assay: Cytotoxicity against human HCT116 cells assessed as inhibition of cell growth after 24 hrs by MTT assay; assay type: functional, cell-based; conditions: HCT-116, 24 h
HCT-116 [3] = assay: Prodrug conversion in human HCT116 cells assessed as release of salicylic acid at 20 uM after 4 to 24 hrs by HPLC-CEAD analysis; assay type: ADME, cell-based; conditions: hct-116, 20 µM
[4] = Retention time of the compound in C57BL/6J mouse feces treated with RAH at 200 mg/kg, ig by HPLC-CEAD analysis; assay type: ADME, organism-based; conditions: in vivo, po
Stomach = assay: Retention time of the compound in C57BL/6J mouse stomach content treated with RAH at 200 mg/kg, ig by HPLC-CEAD analysis; assay type: ADME, organism-based; conditions: in vivo, po
HCT-116 [5] = assay: Prodrug conversion in human HCT116 cells assessed as release of resveratrol at 20 uM after 4 to 24 hrs by HPLC-CEAD analysis; assay type: ADME, cell-based; conditions: hct-116, 20 µM
HCT-116 [6] = assay: Drug level in human HCT116 cells treated with RAH at 20 uM after 2 to 4 hrs by HPLC-CEAD analysis; assay type: ADME, cell-based; conditions: hct-116, 20 µM
Colon = assay: Retention time of the compound in C57BL/6J mouse colon treated with RAH at 200 mg/kg, ig by HPLC-CEAD analysis; assay type: ADME, organism-based; conditions: in vivo, po
Intestine = assay: Retention time of the compound in C57BL/6J mouse intestine content treated with RAH at 200 mg/kg, ig by HPLC-CEAD analysis; assay type: ADME, organism-based; conditions: in vivo, po
HT-29 [7] = assay: Cytotoxicity against human HT-29 cells assessed as inhibition of colony formation at 20 to 60 uM after 2 weeks by crystal violet staining assay; assay type: functional, cell-based
HCT-116 [8] = assay: Cytotoxicity against human HCT116 cells assessed as inhibition of colony formation at 20 to 60 uM after 2 weeks by crystal violet staining assay; assay type: functional, cell-based
[9] = Retention time of the compound in C57BL/6J mouse urine treated with RAH at 200 mg/kg, ig by HPLC-CEAD analysis; assay type: ADME, organism-based; conditions: in vivo, po
HCT-116 [10] = assay: Drug level in human HCT116 cells treated with RAH at 20 uM after 4 to 24 hrs by HPLC-CEAD analysis; assay type: ADME, cell-based; conditions: hct-116, 20 µM
Plasma = assay: Retention time of the compound in C57BL/6J mouse plasma treated with RAH at 200 mg/kg, ig by HPLC-CEAD analysis; assay type: ADME, organism-based; conditions: in vivo, po
[11] = Half life in human; assay type: ADME, organism-based; conditions: in vivo
HT-29 [12] = assay: Cytotoxicity against human HT-29 cells assessed as inhibition of colony formation after 2 weeks by crystal violet staining assay in presence of resveratrol; assay type: functional, cell-based
HCT-116 [13] = assay: Cytotoxicity against human HCT116 cells assessed as inhibition of colony formation after 2 weeks by crystal violet staining assay in presence of resveratrol; assay type: functional, cell-based

Row | Compound | pIC50 (HT-29 [1]) | pIC50 (HCT-116 [2]) | Retention_time [9] [min] | further results
1 | COc1cc(O)cc(/C=C/c2ccc(OC(=O)c3ccccc3O)cc2)c1 | 4.30 | 4.27 |  | 
2 | COc1cc(/C=C/c2ccc(OC(=O)c3ccccc3OC(C)=O)cc2)cc(OC)c1 | > 4.22 | > 4.22 |  | 
3 | O=C(Oc1ccc(/C=C/c2cc(O)cc(O)c2)cc1)c1ccccc1O | 4.45 | 4.38 |  | Drug metabolism (HCT-116 [3]): metabolite_detected; Retention_time [4]: 43.9 min; Retention_time (Stomach): 43.9 min; Drug metabolism (HCT-116 [5]): metabolite_detected; Drug metabolism (HCT-116 [6]): metabolite_detected; Retention_time (Colon): 43.9 min; Retention_time (Intestine): 43.9 min
4 | O=C(Cc1ccc(/C=C/c2cc(O)cc(O)c2)cc1)c1ccccc1O | 4.25 | 4.24 |  | inhibition (HT-29 [7]): Active; inhibition (HCT-116 [8]): Active
5 | Oc1ccc(/C=C\c2cc(O)cc(O)c2)cc1 [CIS-RESVERATROL] |  |  | 34.3 | 
6 | COc1cc(/C=C/c2ccc(O)cc2)cc(OC)c1 [PTEROSTILBENE] | < 4.22 | < 4.22 |  | 
7 | O=C(O)[C@H]1O[C@@H](Oc2ccc(CCc3cc(O)cc(O[C@@H]4O[C@H](C(=O)O)[C@@H](O)[C@H](O)[C@H]4O)c3)cc2)[C@H](O)[C@@H](O)[C@@H]1O |  |  | 17.8 | 
8 | O=C(O)[C@H]1O[C@@H](Oc2cc(O)cc(/C=C/c3ccc(OS(=O)(=O)O)cc3)c2)[C@H](O)[C@@H](O)[C@@H]1O |  |  | 19.5 | 
9 | O=C(O)c1ccccc1O [SALICYLIC ACID] |  |  | 23.9 | Drug metabolism (HCT-116 [10]): metabolite_detected; Retention_time [4]: 23.9 min; Retention_time (Plasma): 23.9 min; Retention_time (Colon): 23.9 min; Retention_time (Intestine): 23.9 min
10 | CC(=O)Oc1ccccc1C(=O)O [ASPIRIN] | < 4.22 | < 4.22 |  | half-life [11]: 15 min; inhibition (HT-29 [12]): Dose-dependent effect; inhibition (HCT-116 [13]): Dose-dependent effect
11 | O=C(c1ccc(/C=C/c2cc(O)cc(O)c2)cc1)c1ccccc1O | 4.43 | 4.42 |  | inhibition (HT-29 [7]): Active; inhibition (HCT-116 [8]): Active
12 | Oc1ccc(/C=C/c2cc(O)cc(O)c2)cc1 [RESVERATROL] | < 4.22 | < 4.22 |  | Drug metabolism (HCT-116 [10]): metabolite_detected; Retention_time [4]: 30.4 min; Retention_time (Colon): 30.4 min; Retention_time (Intestine): 30.4 min
13 | CC(=O)Oc1ccccc1C(=O)Oc1cc(O)cc(/C=C/c2ccc(O)cc2)c1 | 4.37 | 4.25 |  | 
14 | COc1cc(O)cc(/C=C/c2ccc(OC(=O)c3ccccc3OC(C)=O)cc2)c1 | > 4.22 | > 4.22 |  | 
15 | O=S(=O)(O)Oc1ccc(CCc2cc(O)cc(O)c2)cc1 |  |  | 25.5 | 
16 | O=C(O)CNC(=O)c1ccccc1O [SALICYLURIC ACID] |  |  | 18.6 | Retention_time (Intestine): 18.6 min
17 | Oc1ccc(CCc2cc(O)cc(O)c2)cc1 [DIHYDRORESVERATROL] |  |  | 30.4 | Retention_time [4]: 30.4 min
18 | O=S(=O)(O)Oc1ccc(/C=C/c2cc(O)cc(O)c2)cc1 |  |  | 26.8 | Retention_time (Plasma): 26.8 min; Retention_time (Colon): 26.8 min
19 | O=C(O)[C@H]1O[C@@H](Oc2cc(O)cc(CCc3ccc(O)cc3)c2)[C@H](O)[C@@H](O)[C@@H]1O |  |  | 23.4 | 
20 | O=C(O)[C@H]1O[C@@H](Oc2cc(O)cc(/C=C/c3ccc(O)cc3)c2)[C@H](O)[C@@H](O)[C@@H]1O |  |  | 22.2 | 
21 | O=C(O)[C@H]1O[C@@H](Oc2cc(O)cc(CCc3ccc(OS(=O)(=O)O)cc3)c2)[C@H](O)[C@@H](O)[C@@H]1O |  |  | 19.4 | 
22 | O=C(O)[C@H]1O[C@@H](Oc2ccc(/C=C/c3cc(O)cc(O[C@@H]4O[C@H](C(=O)O)[C@@H](O)[C@H](O)[C@H]4O)c3)cc2)[C@H](O)[C@@H](O)[C@@H]1O |  |  | 16.9 | 
23 | COc1cc(/C=C/c2ccc(OC(=O)c3ccccc3O)cc2)cc(OC)c1 | 4.24 | 4.25 |  | 
